Experimental findings from patent publication US6783973B1, “Mammalian catecholamine receptor genes and uses” (Oregon Health & Science University, priority 2000, dated 2004) are described below.

In test [1] the test system is HEK 293 cells transfected with pcDNA3.1 without catecholamine receptor sequences. Kind of test: MAP kinase pathway stimulation, Elk-gal/luciferase reporter assay in control HEK 293 cells transfected with pcDNA3.1. As to conditions: control HEK 293 cells with empty vector pcDNA3.1; compared with cells incubated in the absence of the ligand. On the technique in general: A reporter such as luciferase makes a cellular process visible.

Test [2] deals with human catecholamine receptor. In words: MAP kinase pathway stimulation, Elk-gal/luciferase reporter assay in HEK 293 cells transfected with H2-3pcDNA3.1. As to conditions: HEK 293 cells expressing FLAG/D2-tagged human catecholamine receptor; compared with cells incubated in the absence of the ligand.

Take `C=CCN1CCc2c(cc(O)c(O)c2Cl)C(c2ccccc2)C1` (centres unmarked) [SKF82958]: the “fold stimulation of luciferase (MAP kinase activation), pcDNA3.1” value in test [1] came out at 0.79 fold. For the same compound, the “fold stimulation of luciferase (MAP kinase activation), H2-3 pcDNA3.1” value (from here on “fold stimulation of luciferase … H2-3 pcDNA3.1”) in test [2] is 2.52 fold.
As to `NC1CCc2cc(O)c(O)cc2C1` (centres unmarked) [ADTN67], in test [1], the “fold stimulation of luciferase (MAP kinase activation), pcDNA3.1” value turned out to be 0.78 fold. For the same compound, in test [2], the “fold stimulation of luciferase … H2-3 pcDNA3.1” value worked out at 1.93 fold.
On the same counts, the results for `NC[C@H](O)c1ccc(O)c(O)c1` [Norepinephrine] are 1.3 fold and 1.69 fold.
`NCCc1c[nH]c2ccc(O)cc12` [Serotonin]: the “fold stimulation of luciferase (MAP kinase activation), pcDNA3.1” value in test [1] is on record as 1 fold. Moreover, the “fold stimulation of luciferase … H2-3 pcDNA3.1” value in test [2] was found to be 1.22 fold.
